± gives the expanded uncertainty stated by the source.
Test: Boiling temperature at pressure P
Conditions: 100 kPa; Liquid; Ebulliometric method (Recirculating still)

CC(C)O [propan-2-ol]
Boiling temperature at pressure P: 81.86 ± 0.22 °C
